Source: ChEMBL document CHEMBL1154733, “Synthesis and in vitro opioid receptor functional antagonism of methyl-substituted analogues of (3R)-7-hydroxy-N-[(1S)-1-{[(3R,4R)-4-(3-hydroxyphenyl)-3,4-dimethyl-1-piperidinyl]methyl}-2-methylpropyl]-1,2,3,4-tetrahydro-3-isoquinolinecarboxamide (JDTic)” (J Med Chem, 2009)

What was measured:
[1] = target: Kappa-type opioid receptor (Homo sapiens) (UniProt P41145); assay: Antagonist activity at human cloned kappa opioid receptor expressed in CHO cells assessed as inhibition of U69593-stimulated [35S]GTPgammaS binding; type: functional, cell-based
Chain of Kappa-type opioid receptor (Homo sapiens) (P41145 whole entry): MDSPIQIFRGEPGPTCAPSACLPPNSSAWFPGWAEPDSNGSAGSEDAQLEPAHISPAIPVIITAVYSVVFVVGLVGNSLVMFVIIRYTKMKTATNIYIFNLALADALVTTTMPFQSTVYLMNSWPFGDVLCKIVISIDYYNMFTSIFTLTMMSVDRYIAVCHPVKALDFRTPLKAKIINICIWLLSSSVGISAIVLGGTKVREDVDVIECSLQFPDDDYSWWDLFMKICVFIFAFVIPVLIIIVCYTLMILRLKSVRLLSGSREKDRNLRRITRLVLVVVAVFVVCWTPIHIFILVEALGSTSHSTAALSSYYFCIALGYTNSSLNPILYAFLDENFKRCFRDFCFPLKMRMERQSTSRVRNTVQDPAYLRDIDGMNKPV

[2] = target: Delta-type opioid receptor (Homo sapiens) (UniProt P41143); assay: Antagonist activity at human cloned delta opioid receptor expressed in CHO cells assessed as inhibition of DPDPE-stimulated [35S]GTPgammaS binding; type: functional, cell-based
Chain of Delta-type opioid receptor (Homo sapiens) (P41143 whole entry): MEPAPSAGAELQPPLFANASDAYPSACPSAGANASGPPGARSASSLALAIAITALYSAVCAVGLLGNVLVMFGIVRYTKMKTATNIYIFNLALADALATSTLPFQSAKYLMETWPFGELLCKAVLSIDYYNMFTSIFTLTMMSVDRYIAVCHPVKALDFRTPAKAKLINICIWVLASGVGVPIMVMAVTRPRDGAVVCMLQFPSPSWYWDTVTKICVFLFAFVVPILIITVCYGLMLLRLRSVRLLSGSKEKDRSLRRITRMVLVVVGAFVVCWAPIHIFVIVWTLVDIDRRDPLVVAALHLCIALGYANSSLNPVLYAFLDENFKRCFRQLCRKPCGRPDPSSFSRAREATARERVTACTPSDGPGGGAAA

[3] = target: Kappa-type opioid receptor (Homo sapiens) (UniProt P41145); assay: Ratio of compound Ke to JDTic Ke for human cloned kappa opioid receptor expressed in CHO cells; type: cell-based
Homo sapiens [4] = organism: Homo sapiens; assay: Ratio of Ke for human cloned delta opioid receptor to Ke for human cloned kappa opioid receptor
Homo sapiens [5] = organism: Homo sapiens; assay: Ratio of Ke for human cloned mu opioid receptor to Ke for human cloned kappa opioid receptor
[6] = target: Mu-type opioid receptor (Homo sapiens) (UniProt P35372); assay: Antagonist activity at human cloned mu opioid receptor expressed in CHO cells assessed as inhibition of DAMGO-stimulated [35S]GTPgammaS binding; type: functional, cell-based
Chain of Mu-type opioid receptor (Homo sapiens) (P35372 whole entry): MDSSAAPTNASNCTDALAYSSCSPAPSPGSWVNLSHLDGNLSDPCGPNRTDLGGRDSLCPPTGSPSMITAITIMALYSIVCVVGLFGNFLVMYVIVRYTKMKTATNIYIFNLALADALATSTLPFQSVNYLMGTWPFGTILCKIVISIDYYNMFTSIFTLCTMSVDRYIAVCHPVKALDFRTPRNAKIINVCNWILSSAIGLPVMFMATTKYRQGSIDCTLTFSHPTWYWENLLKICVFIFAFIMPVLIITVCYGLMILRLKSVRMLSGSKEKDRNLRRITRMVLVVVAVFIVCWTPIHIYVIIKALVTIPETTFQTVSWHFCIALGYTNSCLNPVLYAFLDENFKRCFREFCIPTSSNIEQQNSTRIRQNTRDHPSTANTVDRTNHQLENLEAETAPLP

[7] = target: Mu-type opioid receptor (Homo sapiens) (UniProt P35372); assay: Ratio of JDTic Ke to compound Ke for human cloned mu opioid receptor expressed in CHO cells; type: cell-based

Row | Structure (SMILES) | Ke [1] | Ke [2] | Ratio Ke [3] | Ratio Ke (Homo sapiens [4]) | Ratio Ke (Homo sapiens [5]) | Ke [6] | Ratio Ke [7]
1 | COc1cccc([C@]2(C)CCN(C[C@@H](NC(=O)[C@@]3(C)Cc4ccc(OC)cc4CN3)C(C)C)C[C@@H]2C)c1 | 15.2 nM | > 10000 nM | – | – | – | – | –
2 | COc1ccc2c(c1)CN[C@@H](C(=O)N[C@H](CN1CC[C@@](C)(c3cccc(O)c3)[C@@H](C)C1)C(C)C)C2 | – | – | 3 | 1970 | 857 | – | –
3 | COc1cccc([C@]2(C)CCN(C[C@@H](NC(=O)[C@H]3Cc4ccc(O)cc4CN3C)C(C)C)C[C@@H]2C)c1 | 4.3 nM | 2300 nM | – | 535 | 204 | 880 nM | –
4 | COc1cccc([C@]2(C)CCN(C[C@@H](NC(=O)[C@H]3Cc4ccc(O)cc4CN3)C(C)C)C[C@@H]2C)c1 | 0.037 nM | 21.2 nM | 2 | 573 | 649 | 24 nM | –
5 | CC[C@H](C)[C@@H](CN1CC[C@@](C)(c2cccc(OC)c2)[C@@H](C)C1)NC(=O)[C@H]1Cc2ccc(O)cc2CN1C | 2.03 nM | > 10000 nM | – | – | 180 | 360 nM | –
6 | CC(C)[C@@H](CN1CC[C@@](C)(c2cccc(O)c2)[C@@H](C)C1)NC(=O)[C@@]1(C)Cc2ccc(O)cc2CN1 | 0.03 nM | 854 nM | – | 28500 | 120 | 3.6 nM | –
7 | COc1ccc2c(c1)CN(C)[C@@](C)(C(=O)N[C@H](CN1CC[C@@](C)(c3cccc(O)c3)[C@@H](C)C1)C(C)C)C2 | 2.2 nM | – | – | – | – | 7 nM | –
8 | CC[C@H](C)[C@@H](CN1CC[C@@](C)(c2cccc(O)c2)[C@@H](C)C1)NC(=O)[C@H]1Cc2ccc(O)cc2CN1C | 0.11 nM | 132 nM | – | 1200 | 66 | 7.2 nM | –
9 | COc1cccc([C@]2(C)CCN(C[C@@H](NC(=O)[C@@]3(C)Cc4ccc(O)cc4CN3)C(C)C)C[C@@H]2C)c1 | 0.26 nM | 2200 nM | – | – | – | – | –
10 | CC[C@H](C)[C@@H](CN1CC[C@@](C)(c2cccc(OC)c2)[C@@H](C)C1)NC(=O)[C@H]1Cc2ccc(O)cc2CN1 | 0.96 nM | – | – | – | – | 5.1 nM | –
11 | CC(C)[C@@H](CN1CC[C@@](C)(c2cccc(O)c2)[C@@H](C)C1)NC(=O)[C@H]1Cc2ccc(O)cc2CN1C | 0.16 nM | 491 nM | – | 3070 | 1310 | 210 nM | –
12 | CC[C@H](C)[C@@H](CN1CC[C@@](C)(c2cccc(O)c2)[C@@H](C)C1)NC(=O)[C@H]1Cc2ccc(O)cc2CN1 | – | – | – | 800 | 100 | – | 8
13 | CC[C@H](C)[C@@H](CN1CC[C@@](C)(c2cccc(OC)c2)[C@@H](C)C1)NC(=O)[C@@]1(C)Cc2ccc(O)cc2CN1 | 0.52 nM | 2100 nM | – | – | – | – | –
14 | COc1ccc2c(c1)CN[C@@](C)(C(=O)N[C@H](CN1CC[C@@](C)(c3cccc(O)c3)[C@@H](C)C1)C(C)C)C2 | 0.93 nM | 36.8 nM | – | 40 | 4 | 3.8 nM | –
15 | CC(C)[C@@H](CN1CC[C@@](C)(c2cccc(O)c2)[C@@H](C)C1)NC(=O)[C@H]1Cc2ccc(O)cc2CN1 | – | – | – | 3830 | 1260 | – | –
16 | CC[C@H](C)[C@@H](CN1CC[C@@](C)(c2cccc(O)c2)[C@@H](C)C1)NC(=O)[C@@]1(C)Cc2ccc(OC)cc2CN1 | 3.5 nM | 18.7 nM | – | 5 | 5 | 17.5 nM | –
17 | CC[C@H](C)[C@@H](CN1CC[C@@](C)(c2cccc(O)c2)[C@@H](C)C1)NC(=O)[C@@]1(C)Cc2ccc(O)cc2CN1 | 0.11 nM | – | – | – | – | 8.7 nM | –
